Measured values: patent publication US20110118276A1, “METHODS OF TREATING ATHEROSCLEROSIS” (priority 2008, published 2011)
Entries after “also recorded” stand apart in the source; their conditions may differ.

Assays:
Type in all cases: cell-based, human
HIF-1α protein = HIF-1α protein accumulation, western blot; details: foam cells; for antagonism of adenosine induced HIF-1α protein accumulation: antagonist 100 nM, adenosine 100 μM, hypoxia
Procedure: Hypoxic exposures were done in a modular incubator chamber and flushed with a gas mixture containing 1% O2, 5% CO2 and balance N2 (MiniGalaxy, RSBiotech, Irvine, Scotland).
U937 cells were induced to differentiate into macrophages by treatment with phorbol myristate acetate (PMA, 40 nM) for 72 h. […] All dialyses were carried out with Pierce Slide-A-Lyzer cassettes (10,000 molecular weight cut-off).
Whole cell lysates were prepared as described previously (27). […] In experiments aimed to detect HIF, western blot analyses were performed using antibody against HIF-1α (1:250 dilution) and […] (1:1000 dilution) in 5% non-fat dry milk in PBS/0.1°)/0 Tween-20 overnight at 4° C. The protein concentration was determined using BCA protein assay kit (Pierce, Rockford, Ill.). Tubulin (1:250) was used to ensure equal protein loading. Immunoreactivity was assessed and quantified by using a VersaDoc Imaging System (Bio-Rad).

VEGF = VEGF secretion by foam cells, ELISA; details: adenosine 100 μM, 24 h, hypoxic; for effect on adenosine-induced VEGF increase: antagonist 100 nM, U937 derived foam cells
Procedure: (§1) U937 cells were induced to differentiate into macrophages by treatment with phorbol myristate acetate (PMA, 40 nM) for 72 h. Before use oxLDL was dialyzed against 1 L of 0.15 M sodium chloride and 0.3 mM EDTA (pH 7.4) for 12 h at 4° C., then against RPMI 1640 medium (two changes, 1 L/each change) for 24 h. All dialyses were carried out with Pierce Slide-A-Lyzer cassettes (10,000 molecular weight cut-off). After dialysis, lipoproteins were sterilized by passing them through a 0.45 μm (pore-size) filter, then added (50-100 μg/mL, Intracel, Frederick, Md.) to PMA-treated U937 cells and incubated in serum-free RPMI 1640 for 48 h.
(§2) The levels of VEGF and IL-8 protein secreted by the cells in the medium were determined by VEGF and IL-8 ELISA kits (R&D Systems) according to the manufacturer's instructions. The data were presented as mean±SD from three independent experiments.

IL-8 = IL-8 secretion by foam cells, ELISA; details: for block of adenosine-induced IL-8 increase: antagonist 100 nM
Procedure: as §1, §2

PMA-treated U937 cells = assay: Foam cell formation, Oil red O stain analysis; details: oxLDL 50 μg/mL, adenosine 100 μM, 24 h
Procedure: as §1
Treatment of PMA-differentiated U937 cells with test agents was performed 2 h before addition of oxLDL. After exposition to oxLDL under hypoxia for 24 h, U937 cells were fixed in phosphate buffered saline-buffered 4% paraformaldehyde solution for 15 min and then air dried. Oil red O (in 60% isopropanol) staining was done for 15 min essentially as described previously by Kalayoglu and Byrne (Infect. Immun. 1998, 66, 5067-5072). Cells were viewed under a bright-field microscope in 100× fields using a Nikon's Eclipse E800 microscope. Foam cells were defined as macrophages in which cytoplasm was filled with Oil red O-stainable lipid droplets.

[1] = adenosine 100 μM, U937 derived foam cells, hypoxic

Compound	antagonism of adenosine induced HIF-1α protein accumulation (HIF-1α protein)	effect on adenosine-induced VEGF increase (VEGF)	block of adenosine-induced IL-8 increase (IL-8; [1])	further results
CCCn1cc2c(nc(NC(=O)Nc3ccc(OC)cc3)n3nc(-c4ccco4)nc23)n1 [MRE-3008F20, 5-N-(4-methoxyphenyl-carbamoyl)amino-8-propyl-2-(2furyl)-pyrazolo-[4,3e]-1,2,4-triazolo[1,5-c]pyrimidine]	partially antagonized	strongly reduced	not	effect on oxLDL and adenosine induced foam cells formation (Oil red O) (PMA-treated U937 cells; antagonist 100 nM): blocked the foam cells formation; also recorded: inhibition of foam cell formation
COc1ccccc1NC(=O)Nc1nc(-c2cccnc2)nc2ccccc12 [VUF 5574]	–	–	–	effect on oxLDL and adenosine induced foam cells formation (Oil red O) (PMA-treated U937 cells; antagonist 10 nM): blocked the foam cells formation; also recorded: inhibition of foam cell formation
CCCn1c(=O)c2[nH]c(C3CCCC3)nc2n(CCC)c1=O [DPCPX, 1,3-dipropyl-8-cyclopentylxanthine]	–	–	not	–
CCCn1c(=O)c2nc(-c3cc(OCC(=O)Nc4ccc5c(c4)OCO5)nn3C)[nH]c2n(CCC)c1=O [MRE-2029F20, N-1,3-benzodioxol-5-yl-2-{[5-(2,6-dioxo-1,3-dipropyl-2,3,6,9-tetrahydro-1H-purin-8-yl)-1-methyl-1H-pyrazol-3-yl]oxy}acetamide]	partially antagonized	strongly reduced	blocked	block of the effect of the A2B receptor agonist (1 μM) on IL-8 secretion (IL-8; U937 derived foam cells): completely blocked; effect on oxLDL and adenosine induced foam cells formation (Oil red O) (PMA-treated U937 cells; antagonist 100 nM): blocked the foam cells formation; also recorded: inhibition of foam cell formation
CCNC(=O)[C@H]1O[C@@H](n2cnc3c(Nc4ccc(OCC(=O)Nc5ccccc5)cc4)ncnc32)[C@H](O)[C@@H]1O [1-deoxy-1-[6-{4-[(phenylcarbamoyl)-methoxy]phenylamino}-9H-purin-9-yl]-N-ethyl-β-D-ribofuranuronamide]	–	–	–	induction of HIF-1α protein by adenosine receptor agonists (HIF-1α protein; CHA 10, 100 nM, CGS 21680 500, 1000 nM, A2B agonist 10, 100 nM, CI-IB-MECA 10, 100 nM): able to induce HIF-1α protein; IL-8 secretion (IL-8; A2B receptor agonist 1 μM): 142±8 % of IL-8 secretion; EC50 (IL-8; Homo sapiens, U-937, dose-response curve, U937 derived foam cells, hypoxic, read-out: EC50 for stimulation of IL-8 secretion): 58 ± 6 nM
Nc1nc2c(cnn2CCc2ccccc2)c2nc(-c3ccco3)nn12 [SCH 58261]	partially antagonized	inhibited to lesser extent	not	–
Nc1ncnc2c1ncn2[C@@H]1O[C@H](CO)[C@@H](O)[C@H]1O [adenosine]	–	–	–	increase of VEGF levels (VEGF; supernatant of U937 derived foam cells): 165±10%; increase of IL-8 levels (IL-8; adenosine 100 μM, supernatant of U937 derived foam cells, hypoxic): 158±10%; effect on oxLDL-induced foam cell formation (Oil red O) (PMA-treated U937 cells): increased
